Legend:
[1] = RP-TLC chromatographic lipophilicity parameter (RMW); type: physicochemical; settings: RP2, RP18, RP18W plates; methanol-water, propan-1-ol-water, acetonitrile-water
Method: (§1) The lipophilicity study was performed on chromatographic plates for RP-TLC and NP-TLC analysis purchased from Merck (Darmstadt, Germany): silica gel RP18F254 (aluminum plates, No. 1.05559), silica gel RP2F254 (glass plates, No. 1.05747), and RP18WF254 (glass plates, No. 1.13142) were applied as stationary phases in the reversed-phase system. In the case of the NP-TLC system, aluminum chromatographic plates precoated with silica gel 60F254 without (No. 1.05554) and with a concentrating zone (No. 1.05583), glass plates precoated with silica gel 60CNF254 (No. 1.16464), and aluminum plates coated with the mixture of silica gel 60 and Kieselguhr F254 were tested (No. 1.05567).
The lipophilicity studies of the tested compounds were carried out on chromatographic plates 10 cm × 10 cm developed using mobile phases (50 mL) prepared by mixing the respective amounts of the organic modifier (methanol/acetonitrile/propan-1-ol/acetone) and water. In the case of NP-TLC analysis, the addition of 2.4% glacial acetic acid in the mobile phase methanol-water was used. […] The average value of RF (retardation factor) was determined in every case.
(§2) In this study, the chromatographic lipophilicity parameters of both studied compounds were calculated based on the retardation factor (RF) obtained for metformin and phenformin in each mobile phase and chromatographic plates used as the stationary phase. […]

[2] = NP-TLC chromatographic lipophilicity parameter (RMW); type: physicochemical; settings: for RMW range over NP-TLC plates: four chromatographic plates; for RMW: NP-TLC
Method: as §1
The lipophilicity studies of the tested compounds were carried out on chromatographic plates 10 cm × 10 cm developed using mobile phases (50 mL) prepared by mixing the respective amounts of the organic modifier (methanol/acetonitrile/propan-1-ol/acetone) and water. In the case of NP-TLC analysis, the addition of 2.4% glacial acetic acid in the mobile phase methanol-water was used. The organic modifier concentrations (volume fraction, v/v) varied in a range from 0.40 to 0.90 in constant steps of 0.10. […] Chromatography was performed in a classical developing chamber, which was previously saturated with mobile phase vapors for 20 min. The migration distance was 7.0 cm. After the development, the plates were dried at room temperature (20 ± 1 °C) and visualized in UV light (λ = 254 nm) as the maximum wavelength for both biguanides. All analyses were repeated in triplicate. The average value of RF (retardation factor) was determined in every case.
as §2
Then, a linear correlation between the RM of the tested compounds and the volume ratio of the organic solvent in the mobile phase was performed for every chromatographic plate. The extrapolation of calculated RM values to the zero concentration of the organic modifier (i.e., to pure water) in accordance with Soczewiński-Wachtmeister’s Equation (2) allowed determining a valuable chromatographic parameter of lipophilicity expressed as RMW [1]. RM = RMW − S⋅φ(2) where RMW is the chromatographic parameter obtained using Soczewiński–Wachtmeister’s Equation (2), S is the regression slope, and φ is the volume fraction of the organic modifier (e.g., methanol, propan-1-ol, acetonitrile, acetone) in the mobile phase composition. Statistica v. 13.3 software (StatSoft, Kraków, Poland) was used to determine the parameters of these linear relationships.

[3] = n-octanol-water, literature value ref 46; cited from earlier work

SMILES	RMW range over RP-TLC systems [1]	RMW range over NP-TLC plates ([2]; acetone-water)	RMW range over NP-TLC plates ([2]; methanol-water-acetic acid)	logPow [3]	RMW ([2]; Silica gel 60F254, acetone-water)	RMW ([2]; Silica gel 60F254 with concentrating zone, methanol-water-acetic acid)
CN(C)C(=N)N=C(N)N [Metformin, dimethylbiguanide]	−4.877 to 0.960	−4.127 to 1.242	−6.657 to 0.833	–	–	–
[H]/N=C(/N)N/C(=N/[H])NCCc1ccccc1 [Phenformin]	0.142 to 0.728	−4.383–0.790	−1.983–6.170	−0.83	-4.383	-1.983
